Measured values from PMC2593902, “Regulation of cyclic AMP response-element binding-protein (CREB) by Gq/11-protein-coupled receptors in human SH-SY5Y neuroblastoma cells” (Biochemical Pharmacology, 2008).

Molecular target: T1, M3 muscarinic acetylcholine (mACh) receptor (Homo sapiens, UniProt P20309)
T1 construct: gene CHRM3
Assay: Fura-2 Ca2+ mobilization in SH-SY5Y cells endogenously expressing the receptor (also Ins([…])P3 and phospho-CREB)
Type: cell-based

T1 sequence (P20309 whole entry): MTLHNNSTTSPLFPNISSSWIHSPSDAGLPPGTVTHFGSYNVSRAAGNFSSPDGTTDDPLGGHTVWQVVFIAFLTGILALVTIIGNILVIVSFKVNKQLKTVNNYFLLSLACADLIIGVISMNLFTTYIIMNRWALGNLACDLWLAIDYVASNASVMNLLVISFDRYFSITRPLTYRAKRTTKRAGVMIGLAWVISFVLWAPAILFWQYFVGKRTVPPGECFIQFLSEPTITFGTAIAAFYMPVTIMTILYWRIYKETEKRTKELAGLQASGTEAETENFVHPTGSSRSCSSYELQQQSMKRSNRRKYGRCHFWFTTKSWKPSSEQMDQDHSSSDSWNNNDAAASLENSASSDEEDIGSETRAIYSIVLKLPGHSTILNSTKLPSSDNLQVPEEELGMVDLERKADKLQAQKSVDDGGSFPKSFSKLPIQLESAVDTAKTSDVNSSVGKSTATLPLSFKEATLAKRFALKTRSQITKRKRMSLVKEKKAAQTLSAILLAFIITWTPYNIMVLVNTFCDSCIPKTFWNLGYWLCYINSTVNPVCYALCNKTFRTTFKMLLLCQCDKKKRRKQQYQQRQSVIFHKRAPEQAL

- EC50: 800 nM
Structure (SMILES): CC(=O)OC(C)C[N+](C)(C)C (stereo not shown) [MCh, methacholine]
